Measurements: publication PMC7037273, “Phytochemical Screening and Antiprotozoal Effects of the Methanolic Berberis Vulgaris and Acetonic Rhus Coriaria Extracts” (Molecules, 2020)
In brackets after ≈: the same amount, converted by molar mass.

Experiments:
HFF cells = type: cell-based; details: human, 24 h, 100 µM
Protocol: (§1) Cultures of Human foreskin fibroblast (HFF; HFF-1 ATCC® SCRC-1041™), Madin–Darby bovine kidney (MDBK; ECACC) and mouse embryonic fibroblast (NIH/3T3; ATCC® CRL-1658™) cell lines were retrieved from −80 °C stock and cultured continuously at 37 °C under atmosphere 5% CO2 in our laboratory. The NIH/3T3 and HFF cell lines were maintained in Dulbecco Modified Eagle’s Medium (DMEM; Gibco, Grand Island, NY, USA), while MDBK cell line grown in Minimum Essential Medium Eagle (MEM; Gibco). Each medium was treated with 1% glutamine, 10% fetal bovine serum and 0.5% penicillin/streptomycin (Gibco). Every 72 to 96 h, the medium was replaced, and once 80% confluence was reached, the cell collection was performed by sub-culture protocol. To confirm the absence of mycoplasma contamination, 4,6-diamidino-2-phenylindole dihydrochloride (Sigma-Aldrich) stain was used [9].
(§2) The cell viability test was conducted in a 96-well plate as described elsewhere [4, 9, 51, 52]. Briefly, an aliquot of (100 µL) cells was implanted at a concentration of 5 × 10^4 cells/mL in DMEM or MEM with fetal bovine serum and incubated overnight under atmosphere 5% CO2 at 37 °C for attachment. […] After a 24-h incubation, Cell Counting Kits-8 (CCK-8) (10 µL) was added per well followed by the incubation of the plate for another 3 hours and a microplate reader was used to measure the absorbance at 450 nm.

MDBK cells = test: cells; type: cell-based, bovine
Protocol: as §1, §2

NIH/3T3 cells = details: mouse, 24 h, 100 µM
Protocol: as §1, §2

B. microti = test: in vivo chemotherapeutic efficacy in B. microti-infected BALB/c mice
Protocol: MEBV and AERC were examined for their in vivo chemotherapeutic efficacy using B. microti-infected BALB/c mice according to a procedure described elsewhere. Briefly, twenty-five mice were placed in an environment free from pathogens with 22 °C temperature and adjusted humidity and under 12 h light and 12 h darkness and randomly distributed into five groups. All mice in groups 2 through 5 obtained 500 μL of 1 × 10^7 B. microti-iRBC by intraperitoneal (i.p.) injection. Group 1 served as a negative control and was neither infected nor treated. At 1% parasitemia, drug treatment of the mice […]. continuing for five days. Group 2 act as a positive control group and received 95% double-distilled water (DDW) and 5% DMSO. Groups 3 and 4 administered 150 mg/kg body weight (BW) of MEBV and AERC by the oral route, respectively. […] Furthermore, the hematological parameters, including HGB, RBCs, and HCT percentage were examined every four days using an automatic hematology analyzer (Celltac α MEK-6450, Nihon Kohden, Tokyo, Japan) to detect the effect of MEBV and AERC on the retrogression of anemia related to Babesia infection. […]

[1] = system: L. donovani promastigotes; design: method as in PMID 2360830; details: read-out: IC50 leishmanicidal effect; cited from earlier work
T. vaginalis = system: T. vaginalis; design: method as in PMID 29390009; details: cited from earlier work
[2] = system: Trypanosoma brucei brucei; design: method as in PMID 28654013; details: cited from earlier work

## O=C1C(O)=C([C@H]2CC[C@H](c3ccc(Cl)cc3)CC2)C(=O)c2ccccc21 [ATV, atovaquone]
HFF cells
  effect on cell viability: neither DMA nor ATV (final concentration 100 µM) restricted the viability
MDBK cells; bovine, 24 h, 100 µM
  effect on cell viability: neither DMA nor ATV (final concentration 100 µM) restricted the viability
NIH/3T3 cells
  effect on cell viability: neither DMA nor ATV (final concentration 100 µM) restricted the viability

## CC(C)/N=c1\cc2n(-c3ccc(Cl)cc3)c3ccccc3nc-2cc1Nc1ccc(Cl)cc1 [CLF, clofazimine]
MDBK cells; Bos taurus, MDBK cells, reference drug, read-out: EC50 MDBK cell viability
  EC50: 34 ± 3.4 µM

## CC(=O)NCC(=O)O.CC(=O)NCC(=O)O.N=C(N)c1ccc(N=NNc2ccc(C(=N)N)cc2)cc1 [DMA, diminazene aceturate]
B. microti; 25 mg/kg BW, 5 days (day 4 to 8 p.i.), B. microti-infected BALB/c mice
  peak parasitemia level: 5%
B. microti; 25 mg/kg, eighth day post-infection
  inhibition of B. microti multiplication: 92%

## COc1ccc2cc3[n+](cc2c1OC)CCc1cc2c(cc1-3)OCO2 [berberine]
[1]
  IC50: 7.1 µM

## C=CCc1ccc(OC)c(OC)c1 [methyleugenol]
T. vaginalis
  IC50 growth of T. vaginalis: 100 µg/mL

## CC(C)=CCCC(C)c1ccc(C)cc1 (stereo not drawn) [α-curcumene]
[2]
  IC50 antitrypanosomal activity: 13.38 µg/mL (≈ 66.1 µM)
T. vaginalis
  IC50 growth of T. vaginalis: 100 µg/mL

## C=C1CC/C=C(\C)CC[C@@H]2[C@@H]1CC2(C)C [β-caryophyllene]
T. vaginalis
  IC50 growth of T. vaginalis: 100 µg/mL
